Assay results from US7420033B2, “Composition of lactoferrin related peptides and uses thereof” (Agennix, Inc., priority 2004, dated 2008).
“And” between values parts separate entries of the source, which are not always exact repeats. Equal values may be shown once. Where no end group is shown, it is not given here.

Experiments:
hind paw edema = assay: Carrageenan mouse paw edema model of inflammation; assay type: in vivo, ICR derived mice; conditions: PO once daily × 5
Procedure: Test substance LPF-35 at 5 mg/kg and reference agent Aspirin at 100 mg/kg were administered orally once daily for 5 consecutive days to groups of 8 ICR (4 male and 4 female) derived mice weighing 22±2 gms. One hour after 5th dose, right hind paw was injected with carrageenan (0.05 ml of 1% suspension intraplantar). The hind paw edema was measured 4 hours later. Convention: reduction of hind paw edema by 30 percent or more indicates significant acute anti-inflammatory activity. Each animal was fasted overnight before Carrageenan challenge.

heart allograft = assay: Heart allograft survival model in rats; assay type: in vivo, rats (Wistar Furh recipients, Baffalo donors); conditions: FK506 alone, 0.8 mg/kg oral gavage once daily days 0 to +14; n=10
Procedure: The activity of LPF-35 in combination with FK506 was compared with FK506 alone in a heart allograft survival model in rats. Wistar Furh (WF; RT1) recipients of heart allograft from Baffalo donors (BUF; RT1b) were administered oral LPF-35 (5 mg/kg) plus FK506 (0.8 mg/kg), FK506 alone or placebo. The results are presented as a mean±standard deviation (MST±SD). Significance between groups was calculated using Student T-test with p<0.05 considered as significant. In group # 1 control WF recipients of BUF heart allografts (n=5) were untreated and heart allografts were rejected in an acute fashion within 6.4±0.5 days. In group # 2 WF recipients of BUF heart allografts (n=10) were treated daily once (days 0 to +14) with 0.8 mg/kg FK506 delivered by oral gavage. This protocol was effective in prolonging the survival of heart allografts to a MST of 22.3±6.7 days (p=0.0002). […] In group # 3 WF recipients of BUF heart allografts (n=6) were treated daily once (days 0 to +14) with 0.8 mg/kg FK506 delivered by oral gavage in combination with LPF-35 daily for 14 days. This protocol was effective in prolonging the survival of heart allografts to a MST of 49.5±28 days (p=0.0077). […] An effect of reducing organ transplant rejection is indicative of beneficial effects in GVHD.

[1] = tested on: clinical bacterial isolates; assay: Peptide MICs by NCCLS broth microdilution; assay type: cell-based; conditions: geometric mean MIC; 742 clinical bacterial isolates representing 35 species
Procedure: The novel peptides described in this application have shown substantial anti-microbial activity. Peptide MICs were determined by the broth microdilution method recommended by the NCCLS (M7-A5). In each medium, the concentrations of peptide were serial two-fold dilutions ranging from 8192 to 8 μg/mL. Mueller-Hinton broth and Peptone broth were used throughout, using the following media: 1) 5rCAMHB, 2) CAMHB supplemented with 3% lysed horse blood, 3) Haemophilus test medium, 4) peptone broth at pH 7, 5) peptone broth at pH 7.5, 6) peptone broth supplemented with 25 μg/mL calcium and 12.5 μg/mL magnesium, 7) peptone broth supplemented with 1.5 g/L soluble starch. On each day of testing, colony counts were performed on the broth from the growth control well immediately after inoculation from two randomly selected isolates to assure appropriate inoculum density. A total of 742 clinical bacterial isolates representing 35 species were tested.

Ascaris suum antigen = assay: Sheep model of allergic asthma; assay type: in vivo; conditions: lung resistance and carbachol response, FIG. 5, FIG. 6
Procedure: Peptides LPF-32 and LPF-35 were both tested in an established sheep model of allergic asthma. […] Allergic sheep previously characterized as dual responders (displaying early and late phases of bronchoconstriction), were administered peptide followed by inhalation challenge with Ascaris suum antigen.
Baseline dose response curves to aerosolized carbachol were obtained in all sheep 1-3 days before the start of dosing. Sheep were dosed with peptide or placebo by nebulization or oral gavage in the inhaled and oral experiments respectively. The sensitized sheep were then challenged with Ascaris suum antigen to produce early and late airway responses, as measured by mean lung resistance (pulmonary flow resistance, RL). Mean lung resistance was measured using tracheal and pleural pressure catheters connected to a differential pressure transducer. […]
To assess airway responsiveness, cumulative dose response curves to carbachol were obtained, as measured by specific lung resistance, or SRL (SRL=RL * thoracic gas volume). […] Airway hypersensitivity (AH) was determined by calculating the cumulative carbachol dose that increased SRL by 400% over the post-saline value by interpolation from the dose response curve. […]

MIP3-α = MIP3-α expression in hepatocytes, ELISA; assay type: cell-based, human; conditions: 0.04 and 0.2 mg/mL, supernatant at 2 h and 4 h; FIG. 9
Excerpt: Still further, it is envisioned that lactoferrin related peptides stimulate production of MIP-3alpha from hepatocytes. Lactoferrin is known to contribute to the defense systems of the body through its anti-microbial properties. […] The innate immune system is the ‘first line of defense’ of the body against hostile environments and comprise of a variety of effector and cellular mechanisms. This innate immune response is initially likely mediated by the ‘detection system’ of receptors known to be present on the surface of the gut epithelial cells, such as pattern recognition receptors, IL-1 receptor and general ‘scavenger’ receptors. These receptors recognize and respond to specific structural features of the presented molecules. As a result, various intracellular signaling pathways may be initiated (e.g., NFκB, Wnt, etc.) that result in the overall orchestration of the cellular response of the body to the prevailing biological situation (e.g., infection). RhLF and peptides derived from rhLF elicit a similar response of human hepatocytes in vitro in terms of producing an important chemokine—namely MIP-3-alpha. It is surmised that some general structural features that are responsible for the biological response to rhLF are retained in peptides that are structurally related to the parent molecule (rhLF).
MIP3-α has been associated with the stimulation of innate immune responses. […]

Row | Molecule | MIC GeoMean [1] | other results
1 | CC(=O)Oc1ccccc1C(=O)O [Aspirin] |  | Paw Volume LP (hind paw edema; LP, average n=8): 12.38 ×0.01 ml; Paw Volume Diff. (hind paw edema; RP minus LP): 5.00 ×0.01 ml; % Inhibition (hind paw edema; hind paw edema vs vehicle): 32%; Paw Volume RP (hind paw edema; right hind paw injected with carrageenan, 4 hours later, average n=8): 17.38 ×0.01 ml
2 | C=CC[C@@H]1/C=C(\C)C[C@H](C)C[C@H](OC)[C@H]2O[C@@](O)(C(=O)C(=O)N3CCCC[C@H]3C(=O)O[C@H](/C(C)=C/[C@@H]3CC[C@@H](O)[C@H](OC)C3)[C@H](C)[C@@H](O)CC1=O)[C@H](C)C[C@@H]2OC [FK506] |  | survival of heart allografts, MST ± SD (heart allograft): 22.3±6.7 days
3 | RRRRRRSVQWAAVSQPIATEAFQWQRNMRKRRR [LPF-25] | 66 µg/mL | 
4 | RRRRRRSVQWAAVSQPIATKAFQWQRNMRKRRR [LPF-36] | 24 µg/mL | 
5 | RRRRRRSVQWQAVSQPEATKQFQWQRNMRKRRR [LPF-31] | 41 µg/mL | 
6 | RRRRRRSVQWQAVSQPGATKQFQWQRNMRKRRR [LPF-32] | 25 µg/mL | late phase inflammation and airway hyperresponsiveness (Ascaris suum antigen): substantially inhibit
7 | RRRRRRSVQWQAVSQPIATEQFQWQRNMRKRRR [LPF-24] | 43 µg/mL and 51 µg/mL | 
8 | RRRRRRSVQWQAVSQPIATIQFQWQRNMRKRRR [LPF-35] | 15 µg/mL | expression of MIP3-α in Hepatocytes (MIP3-α): stimulates
9 | RRRRRRSVQWQAVSQPIATKQFQWQRNMRKRRR [LPF-33] | 28 µg/mL | 
10 | RRRRRRSVQWQAVSQPQATGQFQWQRNMRKRRR [LPF-34] | 32 µg/mL | 
